Patent US6649654B1, “Methods for identifying and using IKK inhibitors” (The Regents of the University of California, priority 1999, dated 2003)

Assays:
IKK [1] = target: T1, IKK (Homo sapiens, UniProt O14920+O15111); experiment: In vitro kinase assay of IKK immunoprecipitated from TNFα-stimulated HeLa cells; assay type: biochemical; set-up: Endogenous IKK was immunoprecipitated from TNFα-stimulated HeLa cells; endogenous in cells; host or cells: HeLa; conditions: immunoprecipitated IKK, 100 μM (LTB4 2 μM, 15dPGJ2 10 μM)
Description: (§1) Cell lysates were incubated with anti-IKKα (Pharmingen), anti-HA (12CA5; Pharmingen), anti-JNK1 (333.8; Pharmingen), or anti-p38 (New England Biolabs) for 2 hours. Then, 15 μl protein A-Sepharose (Sigma) were added and the mixture was allowed to incubate for 1 hour. After extensive washing, kinase assays were performed as known in the art (See e.g., DiDonato et al., Nature 388:548-554 [1997]). Endogenous IKK, HA-tagged IKKα, endogenous JNK1, and p38 activities were determined with GST-1κBα(1-54), GST-c-Jun(1-79), and GST-ATF2 as substrates.
Endogenous IKK was immunoprecipitated from TNFα-stimulated HeLa cells and the kinase activity determined in the presence of different concentrations of PGA1 (the results of which are shown in FIG. 2B) or 15dPGJ2 (the results of which are shown in FIG. 2C).
(§2) In this Example, experiments to determined the effects of arachidonic acid and its metabolites on IKK activity in vivo and in vitro are described. HeLa cells were treated with 50 μM AA, PGA1, PGB2, PGD2, PGE1, PGE2, PGF1α, or thromboxane B2 (T×B2), 1 μM LTB4, or 5 μM 15dPGJ2, for 2 hours in RPMI containing 10% FCS, and stimulated with TNFα for 10 minutes. Cell lysates were then assayed for endogenous IKK activity and recovery. In this FIGURE, “control” indicates unstimulated cells, and “-” indicates treatment with diluent alone. In addition, IKK was immunoprecipitated from TNFα-stimulated HeLA cells and incubated in vitro with 100 μM AA, PGA1, PGB2, PGD2, PGE1, PGE2, PGF1α, or T×B2, 2 μM LTB4 or 10 μM 15dPGJ2, followed by kinase assay and immunoblot analysis. In this FIGURE, “control” indicates to unstimulated cells, and “-”indicates 1% ethanol.
Many protein kinase inhibitors compete with binding of ATP, but preincubation in the presence of increasing concentrations of ATP had no effect on inhibition of IKKβ by 15dPGJ2, as indicated in FIG. 6A. […] The pellets were rinsed and kinase activity was measured.

IKK [2] = target: T1, IKK; experiment: Endogenous IKK activity (kinase assay) in treated, stimulated HeLa cells; assay type: cell-based; set-up: Endogenous IKK was immunoprecipitated from TNFα-stimulated HeLa cells; endogenous in cells; host or cells: HeLa; conditions: HeLa cells, 50 μM (LTB4 1 μM, 15dPGJ2 5 μM) 2 hours, TNFα 10 minutes
Description: (§3) Cells used in the experiments described herein were cultured in either RPMI 1640 (Jurkat cells) or DMEM (HeLa and COS cells), supplemented with 10% FBS and antibiotics. Cells were stimulated with either 25 ng/ml TPA, 20 ng/ml recombinant TNFα, or 10 ng/ml interleukin 1β (Sigma). PGA1, 15dPGJ2, T×B2, LTB4, AA and other PGs (Cayman) dissolved in ethanol were used as well, as known in the art (See e.g., Rossi et al., 94:746-750 [1997]). Controls received equal amounts of ethanol. Transfections were performed using Lipofectamine Plus (GIBCO) for HeLa and COS cells and DEAE-dextran (Sigma) for Jurkat cells. Xpress-tagged NIK, Xpress-tagged MEKK1, HA-tagged IKKα, and HA-tagged IKKβ were also used (See e.g., Zandi et al., Science 281:1360-1363 [1998]; and Delhase et al., Science 284:309-313 [1999]). COX2 and cPLA2 expression vectors were obtained from Dr. L. Feng (See also, Hirose et al., J. Am. Soc. Nephrol., 9:408-416 [1998]). PGD synthase was cloned from HT29 colon carcinoma cell line cDNA by PCR and subcloned into a pCDNA3 vector. Cells were lysed in buffer B (50 mM Tris-HCl, pH 7.5, 400 mM NaCl, 1 mM EDTA, 1 mM EGTA, 1% Triton, 0.5% NP-40, 10% glycerol, and supplemented with 20 mM β-glycerophosphate, 10 mM PNPP, […] 1 mM PMSF, 20 μg/ml aprotinin, 2.5 μg/ml leupeptin, 8.3 μg/ml bestatin, 1.7 μg/ml pepstatin, and 2 mM DTT).
as §1, §2

NF-κB = NF-κB activation / DNA-binding activity by EMSA in stimulated HeLa cells; assay type: cell-based, human; conditions: HeLa cells stimulated with TNFα (PGA1: IL-1 or TNFα)
Description: as §3
Aliquots of total extracts (15 μg protein) in buffer B were incubated with a ^32P-labeled κB DNA, followed by analysis of DNA-binding activities by EMSA on 4% PAGE gels, as known in the art (See, Rossi et al., supra). Specificity of protein-DNA complexes was verified by supershift with polyclonal antibodies specific for p65 (Rel A).

IKKβ = target: T2, IKKβ (Homo sapiens, UniProt O14920); set-up: FLAG; made in house; host or cells: Sf9 (baculovirus); conditions: high concentrations; Yin et al.; cited from earlier work
T2 sequence (O14920 1-756): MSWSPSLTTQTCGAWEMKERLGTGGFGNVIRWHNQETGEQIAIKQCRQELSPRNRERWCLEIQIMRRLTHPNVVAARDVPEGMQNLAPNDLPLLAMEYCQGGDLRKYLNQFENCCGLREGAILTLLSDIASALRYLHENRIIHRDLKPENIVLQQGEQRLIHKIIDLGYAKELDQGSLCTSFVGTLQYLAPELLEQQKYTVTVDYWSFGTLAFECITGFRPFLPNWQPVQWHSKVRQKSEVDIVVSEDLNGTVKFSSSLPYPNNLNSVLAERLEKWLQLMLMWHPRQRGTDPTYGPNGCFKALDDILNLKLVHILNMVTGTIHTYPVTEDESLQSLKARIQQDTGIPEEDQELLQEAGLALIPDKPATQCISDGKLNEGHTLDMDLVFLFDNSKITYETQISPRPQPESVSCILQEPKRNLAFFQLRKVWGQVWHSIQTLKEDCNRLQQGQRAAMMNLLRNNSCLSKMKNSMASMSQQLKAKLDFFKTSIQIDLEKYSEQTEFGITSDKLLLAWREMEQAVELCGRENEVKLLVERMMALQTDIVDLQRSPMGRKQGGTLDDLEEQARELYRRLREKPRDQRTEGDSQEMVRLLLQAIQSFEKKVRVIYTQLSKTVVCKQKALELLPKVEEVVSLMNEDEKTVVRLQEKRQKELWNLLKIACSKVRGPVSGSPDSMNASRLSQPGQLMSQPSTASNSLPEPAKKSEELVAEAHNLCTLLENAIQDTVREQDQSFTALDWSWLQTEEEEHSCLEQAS

T1 sequence (O15111 whole entry, one chain of several): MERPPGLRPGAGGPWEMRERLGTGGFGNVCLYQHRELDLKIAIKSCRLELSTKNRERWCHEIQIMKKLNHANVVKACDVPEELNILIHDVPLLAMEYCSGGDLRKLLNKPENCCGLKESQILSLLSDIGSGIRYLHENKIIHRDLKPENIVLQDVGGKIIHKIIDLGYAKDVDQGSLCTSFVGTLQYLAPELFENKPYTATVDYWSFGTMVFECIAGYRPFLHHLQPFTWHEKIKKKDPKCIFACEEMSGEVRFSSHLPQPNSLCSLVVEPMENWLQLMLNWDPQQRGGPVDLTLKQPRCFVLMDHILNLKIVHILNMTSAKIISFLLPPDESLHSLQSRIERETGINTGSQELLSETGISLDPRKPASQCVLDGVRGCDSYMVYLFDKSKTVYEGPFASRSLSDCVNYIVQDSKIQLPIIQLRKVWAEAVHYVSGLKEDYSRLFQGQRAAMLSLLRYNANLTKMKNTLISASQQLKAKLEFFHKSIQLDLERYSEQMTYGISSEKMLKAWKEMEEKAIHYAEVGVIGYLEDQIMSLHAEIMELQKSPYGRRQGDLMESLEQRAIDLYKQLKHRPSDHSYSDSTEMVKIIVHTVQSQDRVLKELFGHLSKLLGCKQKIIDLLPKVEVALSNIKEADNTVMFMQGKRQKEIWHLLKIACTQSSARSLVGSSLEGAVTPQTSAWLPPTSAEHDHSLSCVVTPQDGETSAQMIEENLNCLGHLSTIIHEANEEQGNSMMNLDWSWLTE
T1 sequence (Q9Y6K9 whole entry partner, one chain of several): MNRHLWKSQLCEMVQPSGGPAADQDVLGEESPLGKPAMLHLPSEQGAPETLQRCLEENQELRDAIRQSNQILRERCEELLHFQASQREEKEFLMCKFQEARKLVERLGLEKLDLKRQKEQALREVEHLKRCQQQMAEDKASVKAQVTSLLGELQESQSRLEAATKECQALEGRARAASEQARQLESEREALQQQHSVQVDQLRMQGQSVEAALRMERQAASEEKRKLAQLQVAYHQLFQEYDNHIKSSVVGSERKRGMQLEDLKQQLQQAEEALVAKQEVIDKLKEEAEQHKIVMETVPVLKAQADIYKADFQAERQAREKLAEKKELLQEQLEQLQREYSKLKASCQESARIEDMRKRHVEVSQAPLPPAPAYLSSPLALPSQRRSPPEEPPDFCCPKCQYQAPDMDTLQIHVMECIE

Row | SMILES | effect on IKK activity in vitro, FIG. 5B (IKK [1]) | effect on IKK activity in vivo (cells), FIG. 5A (IKK [2]) | effect on NF-κB activation (NF-κB) | inhibition of IKKβ (IKKβ)
1 | CCCCC/C=C\C/C=C\C/C=C\C/C=C\CCCC(=O)O [Arachidonic acid, arachidonic acid] | ineffective | ineffective |  | 
2 | CCCCC[C@H](O)/C=C/[C@H]1C(=O)C[C@H](O)[C@@H]1C/C=C\CCCC(=O)O [PGD2] | ineffective | ineffective |  | 
3 | CCCCC[C@H](O)/C=C/[C@H]1[C@H](O)CC(=O)[C@@H]1CCCCCCC(=O)O [PGE1] | ineffective | ineffective |  | 
4 | CCCCC[C@H](O)/C=C/[C@@H]1[C@@H](CCCCCCC(=O)O)[C@@H](O)C[C@H]1O [PGF1α] | ineffective | ineffective |  | 
5 | CCCCC/C=C\C[C@@H](O)/C=C/C=C/C=C\[C@@H](O)CCCC(=O)O [leukotriene B4] | ineffective | ineffective |  | 
6 | Cc1c(C)c2c(c(C)c1O)CCC(C)(COc1ccc(CC3SC(=O)NC3=O)cc1)O2 (stereo not drawn) [troglitazone, reference compound] |  |  | does not inhibit | 
7 | CCCCC[C@H](O)/C=C/C1=C(C/C=C\CCCC(=O)O)C(=O)CC1 [PGB2] | ineffective | ineffective |  | 
8 | CCCCC[C@H](O)/C=C/[C@H]1OC(O)C[C@H](O)[C@@H]1C/C=C\CCCC(=O)O (stereo partly drawn) [thromboxane B2] | ineffective | ineffective |  | 
9 | CCCCC[C@H](O)/C=C/[C@H]1[C@H](O)CC(=O)[C@@H]1C/C=C\CCCC(=O)O [PGE2] | ineffective | ineffective |  | 
10 | CC(=O)Oc1ccccc1C(=O)O [aspirin] |  |  |  | inhibited
